Test results taken from PubChem BioAssay (NCI).
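Following 48 hours of exposure in 96-well plates, responses at five concentrations were used to interpolate endpoints linearly. The concentration for 50% growth inhibition is given as GI50. At the TGI there is no net growth.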

What was measured:
Test in all cases: NCI anticancer screen, dose series, 48 h
U251 CNS = test system: U251 CNS
HT29 colon = test system: HT29 colon
UO-31 renal = test system: UO-31 renal
ACHN renal = test system: ACHN renal
UACC-62 melanoma = test system: UACC-62 melanoma
SW-620 colon = test system: SW-620 colon
DMS 114 small cell lung = test system: DMS 114 small cell lung
UACC-257 melanoma = test system: UACC-257 melanoma
HCT-15 colon = test system: HCT-15 colon
MOLT-4 leukemia = test system: MOLT-4 leukemia
SR leukemia = test system: SR leukemia
CCRF-CEM leukemia = test system: CCRF-CEM leukemia
HCC-2998 colon = test system: HCC-2998 colon
K-562 leukemia = test system: K-562 leukemia
SNB-78 CNS = test system: SNB-78 CNS
SF-539 CNS = test system: SF-539 CNS
OVCAR-4 ovarian = test system: OVCAR-4 ovarian
A549 NSCLC = test system: A549 NSCLC
COLO 205 colon = test system: COLO 205 colon
DLD-1 colon = test system: DLD-1 colon
RPMI-8226 leukemia = test system: RPMI-8226 leukemia
EKVX NSCLC = test system: EKVX NSCLC
OVCAR-8 ovarian = test system: OVCAR-8 ovarian
MALME-3M melanoma = test system: MALME-3M melanoma
SNB-19 CNS = test system: SNB-19 CNS
SK-OV-3 ovarian = test system: SK-OV-3 ovarian
XF 498 CNS = test system: XF 498 CNS
M14 melanoma = test system: M14 melanoma
TK-10 renal = test system: TK-10 renal
OVCAR-3 ovarian = test system: OVCAR-3 ovarian
KM20L2 colon = test system: KM20L2 colon
SF-295 CNS = test system: SF-295 CNS
SK-MEL-28 melanoma = test system: SK-MEL-28 melanoma
LXFL 529 NSCLC = test system: LXFL 529 NSCLC
A498 renal = test system: A498 renal
IGROV1 ovarian = test system: IGROV1 ovarian
SN12C renal = test system: SN12C renal
NCI-H460 lung = test system: NCI-H460 lung
KM12 colon = test system: KM12 colon
NCI-H23 lung = test system: NCI-H23 lung
OVCAR-5 ovarian = test system: OVCAR-5 ovarian
HOP-62 NSCLC = test system: HOP-62 NSCLC
DMS 273 small cell lung = test system: DMS 273 small cell lung
HCT-116 colon = test system: HCT-116 colon
SK-MEL-5 melanoma = test system: SK-MEL-5 melanoma
M19-MEL melanoma = test system: M19-MEL melanoma
HOP-92 NSCLC = test system: HOP-92 NSCLC
HL-60(TB) leukemia = test system: HL-60(TB) leukemia
CAKI-1 renal = test system: CAKI-1 renal
NCI-H522 lung = test system: NCI-H522 lung
SK-MEL-2 melanoma = test system: SK-MEL-2 melanoma
SF-268 CNS = test system: SF-268 CNS
RXF 393 renal = test system: RXF 393 renal
SNB-75 CNS = test system: SNB-75 CNS
LOX IMVI melanoma = test system: LOX IMVI melanoma
786-0 renal = test system: 786-0 renal
NCI-H226 lung = test system: NCI-H226 lung
HOP-18 NSCLC = test system: HOP-18 NSCLC

CC(=O)c1c(P(=O)(OC(C)C)OC(C)C)nn(-c2ccc([N+](=O)[O-])cc2)c1C
TGI (U251 CNS): > 100 µM
TGI (HT29 colon): > 100 µM
TGI (UO-31 renal): > 100 µM
TGI (ACHN renal): > 100 µM
TGI (UACC-62 melanoma): > 100 µM
TGI (SW-620 colon): > 100 µM
TGI (DMS 114 small cell lung): > 100 µM
TGI (UACC-257 melanoma): > 100 µM
TGI (HCT-15 colon): > 100 µM
TGI (MOLT-4 leukemia): > 100 µM
TGI (SR leukemia): > 100 µM
TGI (CCRF-CEM leukemia): > 100 µM
TGI (HCC-2998 colon): > 100 µM
TGI (K-562 leukemia): > 100 µM
TGI (SNB-78 CNS): > 100 µM
TGI (SF-539 CNS): > 100 µM
TGI (OVCAR-4 ovarian): > 100 µM
TGI (A549 NSCLC): > 100 µM
TGI (COLO 205 colon): > 100 µM
TGI (DLD-1 colon): > 100 µM
TGI (RPMI-8226 leukemia): > 100 µM
TGI (EKVX NSCLC): > 100 µM
TGI (OVCAR-8 ovarian): > 100 µM
TGI (MALME-3M melanoma): > 100 µM
TGI (SNB-19 CNS): > 100 µM
TGI (SK-OV-3 ovarian): > 100 µM
TGI (XF 498 CNS): > 100 µM
TGI (M14 melanoma): > 100 µM
TGI (TK-10 renal): > 100 µM
TGI (OVCAR-3 ovarian): > 100 µM
TGI (KM20L2 colon): > 100 µM
TGI (SF-295 CNS): > 100 µM
TGI (SK-MEL-28 melanoma): > 100 µM
TGI (LXFL 529 NSCLC): > 100 µM
TGI (A498 renal): > 100 µM
TGI (IGROV1 ovarian): > 100 µM
TGI (SN12C renal): > 100 µM
TGI (NCI-H460 lung): > 100 µM
TGI (KM12 colon): > 100 µM
TGI (NCI-H23 lung): > 100 µM
TGI (OVCAR-5 ovarian): > 100 µM
TGI (HOP-62 NSCLC): > 100 µM
TGI (DMS 273 small cell lung): > 100 µM
TGI (HCT-116 colon): > 100 µM
TGI (SK-MEL-5 melanoma): > 100 µM
TGI (M19-MEL melanoma): > 100 µM
TGI (HOP-92 NSCLC): > 100 µM
TGI (HL-60(TB) leukemia): > 100 µM
TGI (CAKI-1 renal): > 100 µM
TGI (NCI-H522 lung): > 100 µM
TGI (SK-MEL-2 melanoma): > 100 µM
TGI (SF-268 CNS): > 100 µM

CC(=O)[CH-]C(C)=O.CC(=O)[CH-]C(C)=O.[CH2-]CCCCCCC.[CH2-]CCCCCCC.[Sn+4]
GI50 (U251 CNS): 15 µM
TGI (U251 CNS): 28.3 µM
GI50 (HT29 colon): 23.5 µM
TGI (HT29 colon): 59.6 µM
GI50 (UO-31 renal): 17.2 µM
TGI (UO-31 renal): 34.8 µM
GI50 (ACHN renal): 28.3 µM
TGI (ACHN renal): 70.4 µM
GI50 (UACC-62 melanoma): 15.6 µM
TGI (UACC-62 melanoma): 29.4 µM
GI50 (SW-620 colon): 16.4 µM
TGI (SW-620 colon): 31.7 µM
GI50 (DMS 114 small cell lung): 16.7 µM
TGI (DMS 114 small cell lung): 31.2 µM
GI50 (UACC-257 melanoma): 17.8 µM
TGI (UACC-257 melanoma): 34.9 µM
GI50 (RXF 393 renal): 14.6 µM
TGI (RXF 393 renal): 32.9 µM
GI50 (HCT-15 colon): 23.2 µM
TGI (HCT-15 colon): 56.2 µM
GI50 (MOLT-4 leukemia): 37.2 µM
TGI (MOLT-4 leukemia): 73 µM
GI50 (SR leukemia): 39.9 µM
TGI (SR leukemia): 62.4 µM
GI50 (CCRF-CEM leukemia): 27 µM
TGI (CCRF-CEM leukemia): 69 µM
GI50 (SNB-75 CNS): 14.7 µM
TGI (SNB-75 CNS): 78.6 µM
GI50 (HCC-2998 colon): 17 µM
TGI (HCC-2998 colon): 31.5 µM
GI50 (K-562 leukemia): 20.5 µM
TGI (K-562 leukemia): 93.5 µM
GI50 (SF-539 CNS): 22.2 µM
TGI (SF-539 CNS): 58.6 µM
GI50 (LOX IMVI melanoma): 13.8 µM
TGI (LOX IMVI melanoma): 27 µM
GI50 (786-0 renal): 15.8 µM
TGI (786-0 renal): 30.1 µM
GI50 (OVCAR-4 ovarian): 22.3 µM
TGI (OVCAR-4 ovarian): 78.6 µM
GI50 (A549 NSCLC): 45.6 µM
TGI (A549 NSCLC): > 100 µM
GI50 (COLO 205 colon): 14.7 µM
TGI (COLO 205 colon): 28.8 µM
GI50 (DLD-1 colon): 18.8 µM
TGI (DLD-1 colon): 45.2 µM
GI50 (RPMI-8226 leukemia): 18.5 µM
TGI (RPMI-8226 leukemia): 40.4 µM
GI50 (EKVX NSCLC): 14.7 µM
TGI (EKVX NSCLC): 35.4 µM
GI50 (OVCAR-8 ovarian): 16.8 µM
TGI (OVCAR-8 ovarian): 32.1 µM
GI50 (MALME-3M melanoma): 17.6 µM
TGI (MALME-3M melanoma): 39.5 µM
GI50 (NCI-H226 lung): 26.2 µM
TGI (NCI-H226 lung): 52.3 µM
GI50 (SNB-19 CNS): 17.5 µM
TGI (SNB-19 CNS): 35.8 µM
GI50 (SK-OV-3 ovarian): 25.5 µM
TGI (SK-OV-3 ovarian): 67.1 µM
GI50 (XF 498 CNS): 11.8 µM
TGI (XF 498 CNS): 24.1 µM
GI50 (M14 melanoma): 18.5 µM
TGI (M14 melanoma): 35.5 µM
GI50 (TK-10 renal): 23.7 µM
TGI (TK-10 renal): 45.2 µM
GI50 (OVCAR-3 ovarian): 15.9 µM
TGI (OVCAR-3 ovarian): 33.8 µM
GI50 (KM20L2 colon): 25 µM
TGI (KM20L2 colon): 57.6 µM
GI50 (SF-295 CNS): 15.4 µM
TGI (SF-295 CNS): 30.6 µM
GI50 (SK-MEL-28 melanoma): 14.7 µM
TGI (SK-MEL-28 melanoma): 28.4 µM
GI50 (LXFL 529 NSCLC): 16.2 µM
TGI (LXFL 529 NSCLC): 30.1 µM
GI50 (A498 renal): 23 µM
TGI (A498 renal): 46.7 µM
GI50 (IGROV1 ovarian): 20.3 µM
TGI (IGROV1 ovarian): 49.2 µM
GI50 (SN12C renal): 22.7 µM
TGI (SN12C renal): 59.1 µM
GI50 (NCI-H460 lung): 17.3 µM
TGI (NCI-H460 lung): 37.8 µM
GI50 (KM12 colon): 16.7 µM
TGI (KM12 colon): 34.4 µM
GI50 (NCI-H23 lung): 18.7 µM
TGI (NCI-H23 lung): 33.6 µM
GI50 (OVCAR-5 ovarian): 15.5 µM
TGI (OVCAR-5 ovarian): 37.7 µM
GI50 (HOP-62 NSCLC): 22.4 µM
TGI (HOP-62 NSCLC): 40.9 µM
GI50 (HCT-116 colon): 14.8 µM
TGI (HCT-116 colon): 29.1 µM
GI50 (SK-MEL-5 melanoma): 17.7 µM
TGI (SK-MEL-5 melanoma): 32 µM
GI50 (HOP-92 NSCLC): 18.1 µM
TGI (HOP-92 NSCLC): 40.7 µM
GI50 (HL-60(TB) leukemia): 21.1 µM
TGI (HL-60(TB) leukemia): 81.6 µM
GI50 (CAKI-1 renal): 36.7 µM
TGI (CAKI-1 renal): > 100 µM
GI50 (NCI-H522 lung): 20.3 µM
TGI (NCI-H522 lung): 46.2 µM
GI50 (SK-MEL-2 melanoma): 14.8 µM
TGI (SK-MEL-2 melanoma): 32 µM
GI50 (HOP-18 NSCLC): > 100 µM
TGI (HOP-18 NSCLC): > 100 µM
GI50 (SF-268 CNS): 18.9 µM
TGI (SF-268 CNS): 57.9 µM
